Key:
Format in all cases: physicochemical
[1] = Determination of the grain size distribution (laser diffraction, HELOS/KR)
Method: 7. Determination of the Grain Size Distribution
The grain size distribution was determined using a laser diffraction method on a “HELOS/KR” grain size measuring device from Sympatec GmbH. The R6 measuring aperture was used, which covers a measuring range of 0.5 to 1750 μm. The sample was fed via a vibrating chute with 60% power and a dispersion pressure of 2.5 bar. The software version “WINDOX 5.1.2.0, LD” was used for evaluation. Setting the trigger conditions: Time base 100.00 ms, start at c.opt>=1.0%, validity c.opt from 1.0% to 14.0%, stop at 5.000s c.opt<=0.9% or 10.000s real time. The x10, x50 and x90 values were used to assess the agglomerate quality, represented as the distribution sum Q3 in a histogram of the grain size distribution.

[2] = Determination of the dissolution rate (mass of filter residue); conditions: 1.75 g in 175 ml water at 23° C., stirred 10 seconds
Source text: The moist filter residue is dried. The mass of the filter residue serves as a measure of the dissolution rate; the lower the mass, the better the dissolution rate.

[3] = Determination of the angle of repose (DIN ISO 4324)
Method: 3. Determination of the Angle of Repose
The angle of repose was determined according to the method DIN ISO 4324 (1983-12) Surfactants; powders and granules; determination of the angle of repose. The smaller the angle of repose, the better the flow properties.

[4] = Determination of dustiness (DustView II); conditions: 30.0 g sample, maximum attenuation plus value at 30 seconds
Method: 5. Determination of Dustiness
The dustiness of solids (powders and agglomerates) is represented in the dimensionless dust number. The dust number is determined using the DustView II dust measuring device from Palas GmbH, Karlsruhe.
Thereby, 30.0 g of a sample is weighed and placed in the funnel on the flap. The measurement is then started by pressing a button on the control panel. The flap opens and the solid falls freely into the dust box. The impact of the solid material whirls up the dust particles. As a result, the light beam emitted by the laser is attenuated by the swirling dust and the attenuated light beam is detected at the receiver. The degree of attenuation (transmission signal) compared to the light beam emitted by the light source is a measure of the dustiness of the solid. A value of 100 means the maximum possible attenuation of the light beam and a value of 0 means no attenuation of the light beam. To determine the dust number, the value of the maximum attenuation of the light beam is added to the value at 30 seconds after the start of the measurement and output as the dust number.
The lower the dust number, the less dusty the solid is.

[5] = Determination of flowability (Evolution Powder Tester); conditions: compression, no time consolidation
Method: 4. Determination of Flowability
Flowability of solids (powders and agglomerates) is determined using the “Evolution Powder Tester” measuring device from PS Prozesstechnik GmbH, Basel, Switzerland. Flowability is shown in the dimensionless number [ffc]. The method used is determination by compression on the Evolution Powder Tester; no time consolidation is carried out. For this purpose, 25 mL of the solid is weighed into the measuring cell and placed in the measuring device. After starting the measurement, the solid is compressed in the measuring cell at a stamping speed of 15 mm per minute and a force (F1) of 10000 kPa for 30 seconds. The resulting solid compact in the measuring cell is then loaded again with a stamping speed of 10 mm per minute and slowly increasing force (F2) until the solid compact breaks. The ratio of the force (F1) for compression and the force (F2) for breaking the compact corresponds to the flowability [ffc] and is calculated using the formula: […]
The following assessment applies to the classification of flowability [ffc]: […]

[6] = Determination of pourability (drainage funnel); set-up: key: Solid trickles through the 2.5 mm outlet: Grade 1; Solid trickles through the 5 mm outlet: Grade 2; Solid trickles through the 8 mm outlet: Grade 3; Solid trickles through the 12 mm outlet: Grade 4; Solid trickles through the 18 mm outlet: Grade 5; Solid does not trickle through the 18 mm outlet: Grade 6; conditions: grade by outlet diameter of test funnel, 50 mL sample; lower grade is better
Method: 2. Determination of Pourability (Drainage Funnel):
The test equipment consists of five test funnels with the same diameter (36 mm inner diameter) and 28 degree tilt, but with different outlet diameters (2.5 mm; 5 mm; 8 mm; 12 mm and 18 mm). A 50 mL sample of creatine or the creatine formulation is filled into the test funnel, whereby the outlet is closed from below so that no material can drain during filling. In the next step, the outlet is opened completely—without shaking the test funnel—so that the entire outlet cross-section is released. The evaluation parameter is the diameter at which the solid trickles through independently and without external influence.
The lower the grade, the better the pourability.

[7] = Determination of the bulk density (DIN ISO 697)
Method: 6. Determination of the Bulk Density
The bulk density was determined according to the method DIN ISO 697 (1984-01) surfactants; detergents; determination of bulk density; method by measuring the mass of a given volume.
The higher the bulk density, the more advantageous the handling.

SMILES	Grain size distribution ×50 value ([1]; distribution sum Q3, listed as non-ground creatine monohydrate, monohydrate)	Undissolved portion to 1.75 g [2]	Angle of repose [3]	Dustiness [dust number] [4]	Flowability [ffc] [5]	Grain size distribution ×10 value ([1]; distribution sum Q3)	Grain size distribution ×90 value ([1]; distribution sum Q3)	Grain size distribution ×50 value ([1]; distribution sum Q3, monohydrate)	Pourability [6]	Bulk density [7]
CN(CC(=O)O)C(=N)N.O [creatine monohydrate]	171 μm	632.9 mg								
CN(CC(=O)O)C(=N)N.O [Example 6, creatine monohydrate]			54 °	23.2	1.9	1.32 μm	45.8 μm	13.0 μm	6	270 g/L
